What was measured:
Assay type in all cases: cell-based
[1] = molecular target: T1, Smo D473H mutant (Homo sapiens, UniProt Q99835, D473H); assay: Reporter assay of C3H10T1/2-Gli-Luc cells transfected with Smo D473H mutant, without SAG; conditions: C3H10T1/2 cells transfected with pLPCX-SMO-D473H, no SAG, 48 hr; read-out: Inhibition of C3H10T1/2-Gli-Luc-Smo-D473H [IC50
T1 construct: expressed in transfected cells; host or cells: C3H10T1/2 cells (ATCC CCL-226), transient transfection with pLPCX-SMO-D473H
Protocol: (§1) A transient transfection system with a Smo wild type or a Smo D473H mutant was also used for compound screening. For the SMO inhibition experiments, cells were transfected with an additional 500 ng/well of wild-type or D473H-mutant type SMO construct (pLPCX-SMO or pLPCX-SMO-D473H). After 24 h, transfected cells were collected by trypsin treatment and re-plated in 96-well plates in an RPMI medium containing 0.5% FBS with a density of 1.5×10^4 cells/well. Compounds were dissolved in DMSO with serial dilutions and were then added to the assay plate. The assay plates were incubated at 37° C. for 48 hr.
(§2) Firefly luciferase and Renilla luciferase activity was determined using the Dual-Glo Luciferase reporter assay system (Promega) with a Victor3 plate reader (PerkinElmer Life Sciences). Firefly luciferase readings were normalized to Renilla luciferase to correct for transfection efficiency. Luminance reading for the C3H10T1/2-Gli-Luc assay was normalized based on DMSO control with SAG stimulation (100% pathway activity) and without SAG stimulation (0% pathway activity). IC50 values, defined as the inflection point of the logistic curve, were determined by nonlinear regression using the Prism 5 software (GraphPad).
(§3) The reporter assay of C3H10T1/2-Gli-Luc cells transfected with a wild-type, D473H mutant Smo mutant was carried out with the same protocol but without SAG stimulation. Luminance reading for the SMO inhibition experiments assay was normalized based on DMSO control (100% of the pathway activity) and a known Smo antagonist (ALLO-2 at 10 μM, 0% of the pathway activity).

[2] = molecular target: T2, Smo wild type (Homo sapiens, UniProt Q99835); assay: Reporter assay of C3H10T1/2-Gli-Luc cells transfected with wild-type Smo, without SAG; conditions: C3H10T1/2 cells transfected with pLPCX-SMO, no SAG, 48 hr; read-out: Inhibition of C3H10T1/2-Gli-Luc-Smo-WT [IC50
T2 construct: expressed in transfected cells; host or cells: C3H10T1/2 cells (ATCC CCL-226), transient transfection with pLPCX-SMO
Protocol: as §1, §2, §3

[3] = test system: hedgehog pathway (pGL3-7xGli-Luciferase reporter in C3H10T1/2 cells); assay: Transient transfection of C3H10T1/2 and Gli-Luc reporter assay with SAG stimulation; conditions: Mus musculus, C3H 10T1/2, SAG 20 nM, 48 hr, read-out: Inhibition of Gli-Luc expression [IC50
Protocol: A cell-based screen for inhibitors of the hedgehog pathway was performed using a transient transfection system in C3H10T1/2 cells with pGL3-7xGli-Luciferase reporter plasmids C3H10T1/2 cells (ATCC, cat.#CCL-226) were seeded into 6-well plates at 8×10^4 cells/well in a BME medium containing 10% heat-inactivated FBS. Cells were transfected the next morning with 500 ng/well pGL3-7xGli-Luciferase reporter plasmids and 100 ng/well pRL-TK Renilla luciferase reporter plasmids (Promega)using GeneJuice transfection reagent (Novagene). After 24 h, transfected cells were collected by trypsin treatment and re-plated in 96-well plates in an RPMI medium containing 0.5% FBS with a density of 1.5×10^4 cells/well. Compounds were dissolved in DMSO with serial dilutions and were then added to the assay plate. SAG (Hh-Ag 1.3) (Santa Cruz) was added to the assay plated for a final concentration 20 nM. The assay plates were incubated at 37° C. for 48 hr.
as §2

T1 sequence (Q99835 28-787 D473H): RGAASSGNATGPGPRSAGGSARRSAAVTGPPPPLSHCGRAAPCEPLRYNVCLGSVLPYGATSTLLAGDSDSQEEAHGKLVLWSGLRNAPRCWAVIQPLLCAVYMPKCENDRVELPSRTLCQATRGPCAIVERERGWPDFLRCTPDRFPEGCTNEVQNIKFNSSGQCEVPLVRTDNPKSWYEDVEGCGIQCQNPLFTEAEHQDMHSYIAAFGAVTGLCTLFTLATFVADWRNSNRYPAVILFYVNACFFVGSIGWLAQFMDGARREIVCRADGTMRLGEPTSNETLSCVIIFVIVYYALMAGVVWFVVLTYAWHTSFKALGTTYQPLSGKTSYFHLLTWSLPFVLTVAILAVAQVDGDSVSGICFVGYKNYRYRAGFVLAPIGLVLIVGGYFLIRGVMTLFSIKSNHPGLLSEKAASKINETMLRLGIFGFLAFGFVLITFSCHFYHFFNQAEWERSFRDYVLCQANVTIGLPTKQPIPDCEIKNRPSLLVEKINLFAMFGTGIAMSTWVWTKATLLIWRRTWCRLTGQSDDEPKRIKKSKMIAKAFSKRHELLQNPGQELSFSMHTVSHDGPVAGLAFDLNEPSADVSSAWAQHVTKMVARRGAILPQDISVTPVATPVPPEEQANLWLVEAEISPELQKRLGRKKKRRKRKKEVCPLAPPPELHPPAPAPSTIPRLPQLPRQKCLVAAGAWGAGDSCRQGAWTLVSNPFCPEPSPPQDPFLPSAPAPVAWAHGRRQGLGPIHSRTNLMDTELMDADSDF
T2 sequence (Q99835 28-787): as the sequence (Q99835 28-787 D473H) above, with H446D counted along it

Row | SMILES | IC50 [1] [nM] | IC50 [2] [nM] | IC50 [3] [nM]
1 | COc1cccc(OC)c1NC(=O)c1ccc(Nc2ncc(SC)c(-c3ccccc3)n2)cc1 [Compound 21, N-(2,6-Dimethoxy-phenyl)-4-(5-methylsulfanyl-4-phenyl-pyrimidin-2-ylamino)-benzamide] | 100 to 1000 | < 100 | < 100
2 | CSc1cnc(Nc2ccc(C(=O)Nc3cc(CN4CCOCC4)ccc3C)cc2F)nc1-c1ccc(F)cc1 [Compound 41, 3-Fluoro-4-[4-(4-fluoro-phenyl)-5-methylsulfanyl-pyrimidin-2-ylamino]-N-(2-methyl-5-morpholin-4-ylmethyl-phenyl)-benzamide] | 100 to 1000 | < 100 | < 100
3 | CSc1cnc(Nc2ccc(C(=O)Nc3cccc(CN4CCOCC4)c3)cc2)nc1-c1ccc(C(F)(F)F)nc1 [Compound 69, 4-[5-Methylsulfanyl-4-(6-trifluoromethyl-pyridin-3-yl)-pyrimidin-2-ylamino]-N-(3-morpholin-4-ylmethyl-phenyl)-benzamide] | 100 to 1000 | < 100 | < 100
4 | CSc1cnc(Nc2ccc(C(=O)Nc3ccccc3)cc2)nc1-c1cccnc1F [Compound 5, 4-[4-(2-Fluoro-pyridin-3-yl)-5-methylsulfanyl-pyrimidin-2-ylamino]-N-phenyl-benzamide] | 100 to 1000 | 100 to 1000 | 100 to 1000
5 | CSc1cnc(Nc2ccc(C(=O)Nc3ccc(C#N)cc3)cc2)nc1-c1cccnc1F [Compound 18, N-(4-Cyano-phenyl)-4-[4-(2-fluoro-pyridin-3-yl)-5-methylsulfanyl-pyrimidin-2-ylamino]-benzamide] | 100 to 1000 | 100 to 1000 | 100 to 1000
6 | CSc1cnc(Nc2ccc(C(=O)Nc3c(F)cccc3F)cc2)nc1-c1cccnc1F [Compound 8, N-(2,6-Difluoro-phenyl)-4-[4-(2-fluoro-pyridin-3-yl)-5-methylsulfanyl-pyrimidin-2-ylamino]-benzamide] | 100 to 1000 | 100 to 1000 | 100 to 1000
7 | CSc1cnc(Nc2ccc(C(=O)Nc3ccccc3C)cc2)nc1-c1ccccc1 [Compound 19, 4-(5-Methylsulfanyl-4-phenyl-pyrimidin-2-ylamino)-N-o-tolyl-benzamide] | 100 to 1000 | 100 to 1000 | 100 to 1000
8 | CCOc1cnc(Nc2ccc(C(=O)Nc3cc(CN4CCOCC4)ccc3C)cc2)nc1-c1ccc(F)cc1 [Compound 75, 4-[5-Ethoxy-4-(4-fluoro-phenyl)-pyrimidin-2-ylamino]-N-(2-methyl-5-morpholin-4-ylmethyl-phenyl)-benzamide] | 100 to 1000 | < 100 | < 100
9 | CSc1cnc(Nc2ccc(C(=O)Nc3ccccc3)cc2)nc1-c1ccc(C#N)cc1 [Compound 3, 4-[4-(4-Cyano-phenyl)-5-methylsulfanyl-pyrimidin-2-ylamino]-N-phenyl-benzamide] | 100 to 1000 | 100 to 1000 | 100 to 1000
10 | CCN(CC)Cc1ccc(C)c(NC(=O)c2ccc(Nc3ncc(SC)c(-c4ccc(OC(F)(F)F)cc4)n3)nc2)c1 [Compound 66, N-(5-Diethylaminomethyl-2-methyl-phenyl)-6-[5-methylsulfanyl-4-(4-trifluoromethoxy-phenyl)-pyrimidin-2-ylamino]-nicotinamide] | 100 to 1000 | < 100 | < 100
11 | CSc1cnc(Nc2ccc(C(=O)Nc3cc(CN4CCCCC4)ccc3C)cc2)nc1-c1ccc(F)cc1 [Compound 48, 4-[4-(4-Fluoro-phenyl)-5-methylsulfanyl-pyrimidin-2-ylamino]-N-(2-methyl-5-piperidin-1-ylmethyl-phenyl)-benzamide] | 100 to 1000 | < 100 | < 100
12 | CCN(CC)Cc1ccc(C)c(NC(=O)c2ccc(Nc3ncc(SC)c(-c4ccc(F)cc4)n3)c(F)c2)c1 [Compound 53, N-(5-Diethylaminomethyl-2-methyl-phenyl)-3-fluoro-4-[4-(4-fluoro-phenyl)-5-methylsulfanyl-pyrimidin-2-ylamino]-benzamide] | < 100 | < 100 | < 100
13 | CSc1cnc(Nc2ccc(C(=O)Nc3cc(CN4CCOCC4)ccc3C)cc2)nc1-c1ccc(C(F)(F)F)nc1 [Compound 68, N-(2-Methyl-5-morpholin-4-ylmethyl-phenyl)-4-[5-methylsulfanyl-4-(6-trifluoromethyl-pyridin-3-yl)-pyrimidin-2-ylamino]-benzamide] | 100 to 1000 | < 100 | 100 to 1000
14 | CSc1cnc(Nc2ccc(C(=O)Nc3cc(CN4CCNCC4)ccc3C)cc2F)nc1-c1ccc(F)cc1 [Compound 78, 3-Fluoro-4-[4-(4-fluoro-phenyl)-5-methylsulfanyl-pyrimidin-2-ylamino]-N-(2-methyl-5-piperazin-1-ylmethyl-phenyl)-benzamide] | 100 to 1000 | 100 to 1000 | 100 to 1000
15 | CSc1cnc(Nc2ccc(C(=O)Nc3ccc(C(F)(F)F)c(Cl)c3)cc2)nc1-c1ccc(C#N)cc1 [Compound 4, N-(3-Chloro-4-trifluoromethyl-phenyl)-4-[4-(4-cyano-phenyl)-5-methylsulfanyl-pyrimidin-2-ylamino]-benzamide] | 100 to 1000 | 100 to 1000 | 100 to 1000
16 | COc1cccc(OC)c1NC(=O)c1ccc(Nc2ncc(SC)c(-c3cccnc3F)n2)c(F)c1 [Compound 13, N-(2,6-Dimethoxy-phenyl)-3-fluoro-4-[4-(2-fluoro-pyridin-3-yl)-5-methylsulfanyl-pyrimidin-2-ylamino]-benzamide] | 100 to 1000 | 100 to 1000 | 100 to 1000
17 | CSc1cnc(Nc2ccc(C(=O)Nc3c(F)cccc3F)cc2)nc1-c1cccnc1 [Compound 10, N-(2,6-Difluoro-phenyl)-4-(5-methylsulfanyl-4-pyridin-3-yl-pyrimidin-2-ylamino)-benzamide] | 100 to 1000 | 100 to 1000 | 100 to 1000
18 | CSc1cnc(Nc2ccc(C(=O)Nc3cc(CN4CCN(C)CC4)ccc3C)cc2)cc1-c1ccc(OC(F)(F)F)cc1 [Compound 82, N-[2-Methyl-5-(4-methyl-piperazin-1-ylmethyl)-phenyl]-4-[5-methylsulfanyl-4-(4-trifluoromethoxy-phenyl)-pyridin-2-ylamino]-benzamide] | < 100 | < 100 | < 100
19 | CSc1cnc(Nc2ccc(C(=O)Nc3cccc(CN4CCOCC4)c3)cc2)nc1-c1ccc(OC(F)(F)F)cc1 [Compound 65, 4-[5-Methylsulfanyl-4-(4-trifluoromethoxy-phenyl)-pyrimidin-2-ylamino]-N-(3-morpholin-4-ylmethyl-phenyl)-benzamide] | 100 to 1000 | < 100 | < 100
20 | CCOc1cnc(Nc2ccc(C(=O)Nc3cc(CN4CCN(C)CC4)ccc3C)cc2)nc1-c1ccc(F)cc1 [Compound 76, 4-[5-Ethoxy-4-(4-fluoro-phenyl)-pyrimidin-2-ylamino]-N-[2-methyl-5-(4-methyl-piperazin-1-ylmethyl)-phenyl]-benzamide] | < 100 | < 100 | < 100
21 | COc1cnc(Nc2ccc(C(=O)Nc3cc(CN4CCOCC4)ccc3C)cc2F)nc1-c1ccc(F)cc1 [Compound 60, 3-Fluoro-4-[4-(4-fluoro-phenyl)-5-methoxy-pyrimidin-2-ylamino]-N-(2-methyl-5-morpholin-4-ylmethyl-phenyl)-benzamide] | < 100 | < 100 | < 100
22 | CSc1cnc(Nc2ccc(C(=O)Nc3cc(CN4CCOCC4)ccc3C)cc2)cc1-c1ccc(F)cc1 [Compound 84, 4-((4-(4-fluorophenyl)-5-(methylthio)pyridin-2-yl)amino)-N-(2-methyl-5-(morpholinomethyl)phenyl)benzamide] | 100 to 1000 | < 100 | < 100

From patent publication US10793542B2, “Hetroarylamine compounds for modulating the hedgehog pathway and preparing method and uses thereof” (DEVELOPMENT CENTER FOR BIOTECHNOLOGY, priority 2016, dated 2020)
